Values of other authors in patent US20140316333A1, “DISSOLVING SOLID SOLUTION PERFORATOR PATCH FOR MIGRAINE TREATMENT” (priority 2011, published 2014).

Settings: oral dosage

CN1C[C@H](C(=O)N[C@]2(C)O[C@@]3(O)[C@@H]4CCCN4C(=O)[C@H](Cc4ccccc4)N3C2=O)C[C@@H]2c3cccc4[nH]cc(c34)C[C@H]21 [DHE, dihydroergotamine]
time to have efficacy for reducing migraine headache: 2 to 3 h | active unchanged drug that reaches the blood stream (about 20-30 mg, estimated): 2-10%
